Measurements taken from patent US11014908B2, “Chemical compounds” (Pfizer Inc., priority 2018, dated 2021).

Tests used:
human HbA = human HbA (Homo sapiens, UniProt P68871+P69905); experiment: Co-crystallization with HbA; conditions: 1.85 Å co-crystal structure with human HbA
From the text: Co-Crystallization with HbA
The binding of the compound of Example 58 to hemoglobin (Hb) was further investigated through co-crystallization experiments. Given the structural and functional similarity of HbS and HbA, and the large quantity of material needed for structural studies, purified HbA was utilized for these studies.
HbA with Example 58 was crystallized according to published protocols (Lee et al. “Crowning proteins: modulating the protein surface properties using crown ethers”, Angew Chem Int Ed Engl 2014; 53(48):13054-13058). Briefly, 20 mg/mL HbA in 20 mM Tris-HCl (pH 8.0) was mixed with equal volume of 50 mM 18-crown-6 solution and incubated at 20° C. for 20 minutes. Example 58 was then added to a final concentration of 1.5 mM and further incubated for an additional 1 hr. Crystallization was performed at 20° C. using hanging drop vapor diffusion method by mixing equal volumes of protein and reservoir solution containing 0.1 M Tris-HCl (pH 8.0), 0.2 M Li2SO4 and 30-32% PEG 3350. Crystals grew to their maximum size in ˜2 days and the crystals were further soaked overnight with 10 mM Example 58. Diffraction data were collected at the Argonne National Laboratory Advanced Photon Source, beamline 17-ID. The data was processed using autoPROC (Global Phasing Limited) and the structure was solved using 3WHM (PDB code) as a starting model. […]

Hb in mouse whole blood = experiment: Whole blood oxygen affinity assay (Hemox analyzer), mouse blood; conditions: 1 mM compound, 1 hour at 25 C, relative to DMSO
From the text: Whole Blood Oxygen Affinity Assay
Oxygen affinity is a marker of the ability of Hb to bind and release oxygen in solution. It can be determined in whole blood by measuring the percentage of oxygenated and deoxygenated Hb present at a given oxygen concentration. Oxygen affinity is expressed as the p50, the partial pressure of oxygen at which 50% of the Hb in solution has oxygen bound, or the p20, the partial pressure of oxygen at which 20% of the Hb in solution has oxygen bound.
To determine the effects of compounds of the invention on oxygen affinity the p50 and p20 were measured in human, dog, and mouse whole blood using a Hemeox Analyzer (TCS Scientific). The blood was spiked with a compound of the invention to a concentration of 1 mM and incubated for 1 hour at 25 C with constant rotation. A concentration of 1 mM of compound was selected to approximate 20% hemoglobin occupancy in whole blood. Controls with the same concentration of DMSO, but no compound were incubated in the same way at the same time. Following incubation, samples were immediately assayed for oxygen affinity using the Hemox analyzer. […] Once samples had reached an pO2 of >150 torr, the measurement was initiated by switching to N2, and the percent oxyhemoglobin as a function of partial pressure was recorded. The p20 and p50 of each sample were recorded from the instrument readout. […]

## C[C@H](Oc1cc2cc(F)ccc2nc1N)c1nc(O)ccc1-n1cccn1 [Example 58, 6-{(1S)-1-[(2-amino-6-fluoroquinolin-3-yl)oxy]ethyl}-5-(1H-pyrazol-1-yl)pyridin-2-ol]
Human HbA
  Hb conformation bound in co-crystal structure: binds to the oxygenated (R state) conformation of Hb
Hb in mouse whole blood
  Reduction in p20 (%) Mouse: 11 ± 2%
  Reduction in p50 (%) Mouse: 5 ± 3%
